# Measured values reported in patent publication US11414432B2, “Condensed bicyclic heterocyclic derivatives as pest control agents” (Bayer Aktiengesellschaft, priority 2018, dated 2022).
# Key:
# [1] = log P by HPLC on reversed-phase column (C18), acidic range; type: physicochemical; details: formic acid in water/acetonitrile, LC-UV
# Experimental: The log P values were determined according to EEC Directive 79/831 Annex V.A8 by HPLC (high-performance liquid chromatography) on a reversed-phase column (C18) using the following methods: ^[a] […] Calibration was carried out using a homologous series of straight-chain alkan-2-ones (having 3 to 16 carbon atoms) with known log P values. The values between successive alkanones are determined by linear regression.
# [2] = test system: Ctenocephalides felis; assay: Ctenocephalides felis oral test; type: in vivo; details: adult cat fleas, oral via citrated cattle blood, 100 ppm, after 2 days
# Experimental: Ctenocephalides felis—Oral Test
# Solvent: dimethyl sulfoxide
# To produce a suitable active compound formulation, 10 mg of active compound are mixed with 0.5 ml of dimethyl sulfoxide. Dilution with citrated cattle blood gives the desired concentration.
# About 20 unfed adult cat fleas (Ctenocephalides felis) are placed into a chamber which is closed at the top and bottom with gauze. A metal cylinder whose bottom end is closed with parafilm is placed onto the chamber. The cylinder contains the blood/active compound formulation, which can be imbibed by the fleas through the parafilm membrane.
# After 2 days, the kill in % is determined. 100% means that all of the fleas have been killed; 0% means that none of the fleas have been killed.
# [3] = test system: Meloidogyne incognita; assay: Meloidogyne incognita test; type: in vivo; details: lettuce in sand, egg/larvae suspension, 20 ppm, after 14 days
# Experimental: Meloidogyne incognita Test Solvent: 125.0 parts by weight of acetone To produce a suitable active compound formulation, 1 part by weight of active compound is mixed with the stated amount of solvent and the concentrate is diluted to the desired concentration with water. Vessels are filled with sand, active compound solution, an egg/larvae suspension of the southern root-knot nematode (Meloidogyne incognita) and lettuce seeds. The lettuce seeds germinate and the plants develop. The galls develop on the roots. After 14 days, the nematicidal efficacy in % is determined by the formation of galls. 100% means that no galls were found; 0% means that the number of galls on the treated plants corresponds to the untreated control.
# [4] = test system: Myzus persicae; assay: Myzus persicae oral test; type: in vivo; details: mixed population, oral through parafilm, 4 ppm, after 5 days
# Experimental: Myzus persicae—Oral Test Solvent: 100 parts by weight of acetone To produce a suitable preparation of active compound, 1 part by weight of active compound is dissolved using the specified parts by weight of solvent and made up with water until the desired concentration is attained. 50 μl of the active compound preparation are transferred into microtitre plates and made up to a final volume of 200 μl with 150 μl of IPL41 insect medium (33%+15% sugar). Subsequently, the plates are sealed with parafilm, which a mixed population of green peach aphids (Myzus persicae) within a second microtitre plate is able to puncture and imbibe the solution through. After 5 days, the efficacy in % is determined. 100% means that all the aphids have been killed; 0% means that no aphids have been killed.
# [5] = test system: Spodoptera frugiperda; assay: Spodoptera frugiperda spray test; type: in vivo; details: caterpillars on maize leaf discs, 100 g/ha, after 7 days
# Experimental: Spodoptera frugiperda—Spray Test Solvent: 78.0 parts by weight of acetone • • 1.5 parts by weight of dimethylformamide Emulsifier: alkylaryl polyglycol ether To produce a suitable active compound preparation, 1 part by weight of active compound is dissolved using the stated parts by weight of solvent and made up with water containing an emulsifier concentration of 1000 ppm until the desired concentration is attained. To produce further test concentrations, the formulation is diluted with emulsifier-containing water. Leaf discs of maize (Zea mays) are sprayed with an active compound formulation of the desired concentration and, after drying, populated with caterpillars of the fall armyworm (Spodoptera frugiperda). After 7 days, the efficacy in % is determined. 100% means that all the caterpillars have been killed; 0% means that no caterpillar has been killed.
# [6] = test system: Diabrotica balteata; assay: Diabrotica balteata spray test; type: in vivo; details: beetle larvae on germinated wheat grains, 160 μg/cavity, after 7 days
# Experimental: Diabrotica balteata—Spray Test Solvent: 78 parts by weight of acetone • • 1.5 parts by weight of dimethylformamide Emulsifier: alkylaryl polyglycol ether To produce a suitable active compound preparation, 1 part by weight of active compound is dissolved using the stated parts by weight of solvent and made up with water containing an emulsifier concentration of 1000 ppm until the desired concentration is attained. To produce further test concentrations, the formulation is diluted with emulsifier-containing water. Pre-swollen wheat grains (Triticum aestivum) are incubated in a multiwell plate filled with agar and a little water for one day (5 seed grains per cavity). The germinated wheat grains are sprayed with an active compound preparation of the desired concentration. Subsequently, each cavity is infected with 10-20 beetle larvae of Diabrotica balteata. After 7 days, the efficacy in % is determined. 100% means that all wheat plants have grown as in the untreated, uninfected control; 0% means that no wheat plant has grown.
# [7] = test system: Myzus persicae; assay: Myzus persicae spray test; type: in vivo; details: Chinese cabbage leaf discs, all stages, 100 g/ha, after 5 days
# Experimental: Myzus persicae—Spray Test Solvent: 78 parts by weight of acetone • • 1.5 parts by weight of dimethylformamide Emulsifier: alkylaryl polyglycol ether To produce a suitable active compound preparation, 1 part by weight of active compound is dissolved using the stated parts by weight of solvent and made up with water containing an emulsifier concentration of 1000 ppm until the desired concentration is attained. To produce further test concentrations, the formulation is diluted with emulsifier-containing water. Discs of Chinese cabbage leaves (Brassica pekinensis) infested by all stages of the green peach aphid (Myzus persicae) are sprayed with an active compound formulation of the desired concentration. After 5 days, the efficacy in % is determined. 100% means that all the aphids have been killed; 0% means that no aphids have been killed.
SMILES,chromatographic logP [1],efficacy [4],efficacy [5],further results
CCS(=O)(=O)c1c(-c2nc3cc(C(F)(F)F)n(C)c(=O)c3n2C)nn2cc(CC#N)ccc12 [Example I-02],,100%,100%,
CCS(=O)(=O)c1c(-c2nc3cc(C(F)(F)F)n(C)c(=O)c3n2C)nn2cc(C3CC3)ccc12 [Example I-03],,100%,100%,efficacy [6]: 100%; efficacy [7]: 90%

# Second part, led by results:
chromatographic logP [1],SMILES,efficacy [4],efficacy [5],further results
3.37,Cn1c(C(F)(F)F)cc2nc(-c3nn4cc(C5(C#N)CC5)ccc4c3Br)n(C)c2c1=O,,,
2.8,CCS(=O)(=O)c1c(-c2nc3cc(C(F)(F)F)n(C)c(=O)c3n2C)nn2cc(C3(C#N)CC3)ccc12 [Example I-01],100%,,efficacy (kill in %) [2]: 97%; nematicidal efficacy (formation of galls) [3]: 100%
1.55,"N#CC1(c2ccc3c(Br)c(C(=O)O)nn3c2)CC1 [3-Bromo-6-(1-cyanocyclopropyl)pyrazolo[1,5-a]pyridine-2-carboxylic Acid]",,,
